# Assays:
# Assay in all cases: Test B pre-/postemergence plant response
# Type in all cases: in vivo
# [1] = test system: Italian ryegrass (Lolium multiflorum); settings: for Ryegrass, Italian plant response rating (0 to 100 scale): 62 g ai/ha, postemergence, 0 is no effect, 100 is complete control; for Plant response rating, Ryegrass, Italian: Postemergence
# Method in brief: (§1)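 Seeds were sown in loam soil/sand blend and treated preemergence with compound in non-phytotoxic solvent mixture containing surfactant; postemergence sprays, same formulation, went onto plants 2 to 18 cm (1- to 4-leaf stage) in peat-based planting medium. Greenhouse 13 to 15 days, then visual rating versus untreated controls, 0 (no effect) to 100 (complete control).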
# [2] = test system: blackgrass (Alopecurus myosuroides); settings: for Blackgrass plant response rating (0 to 100 scale): 62 g ai/ha, postemergence, 0 is no effect, 100 is complete control; for Plant response rating, Blackgrass: Postemergence
# Method in brief: as §1
# [3] = test system: cocklebur (Xanthium strumarium); settings: for Cocklebur plant response rating (0 to 100 scale): 62 g ai/ha, postemergence, 0 is no effect, 100 is complete control; for Plant response rating, Cocklebur: Postemergence
# Method in brief: as §1
# corn (Zea mays) = settings: for Corn plant response rating (0 to 100 scale): 62 g ai/ha, postemergence, 0 is no effect, 100 is complete control; for Plant response rating, Corn: Postemergence
# Method in brief: as §1
# [4] = test system: giant foxtail (Setaria faberii); settings: for Foxtail, Giant plant response rating (0 to 100 scale): 62 g ai/ha, postemergence, 0 is no effect, 100 is complete control; for Plant response rating, Foxtail, Giant: Postemergence
# Method in brief: as §1
# [5] = test system: goosegrass (Eleusine indica); settings: for Goosegrass plant response rating (0 to 100 scale): 62 g ai/ha, postemergence, 0 is no effect, 100 is complete control; for Plant response rating, Goosegrass: Postemergence
# Method in brief: as §1
# [6] = test system: green foxtail (Setaria viridis); settings: for Foxtail, Green plant response rating (0 to 100 scale): 62 g ai/ha, postemergence, 0 is no effect, 100 is complete control; for Plant response rating, Foxtail, Green: Postemergence
# Method in brief: as §1
# [7] = test system: johnsongrass (Sorghum halepense); settings: for Johnsongrass plant response rating (0 to 100 scale): 62 g ai/ha, postemergence, 0 is no effect, 100 is complete control; for Plant response rating, Johnsongrass: Postemergence
# Method in brief: as §1
# kochia (Kochia scoparia) = settings: for Kochia plant response rating (0 to 100 scale): 62 g ai/ha, postemergence, 0 is no effect, 100 is complete control; for Plant response rating, Kochia: Postemergence
# Method in brief: as §1
# [8] = test system: large crabgrass (Digitaria sanguinalis); settings: for Crabgrass, Large plant response rating (0 to 100 scale): 62 g ai/ha, postemergence, 0 is no effect, 100 is complete control; for Plant response rating, Crabgrass, Large: Postemergence
# Method in brief: as §1
# [9] = test system: morningglory (Ipomoea coccinea); settings: for Morningglory plant response rating (0 to 100 scale): 62 g ai/ha, postemergence, 0 is no effect, 100 is complete control; for Plant response rating, Morningglory: Postemergence
# Method in brief: as §1
# [10] = test system: ragweed (common ragweed, Ambrosia elatior); settings: for Ragweed plant response rating (0 to 100 scale): 62 g ai/ha, postemergence, 0 is no effect, 100 is complete control; for Plant response rating, Ragweed: Postemergence
# Method in brief: as §1
# soybean (Glycine max) = settings: for Soybean plant response rating (0 to 100 scale): 62 g ai/ha, postemergence, 0 is no effect, 100 is complete control; for Plant response rating, Soybean: Postemergence
# Method in brief: as §1
# [11] = test system: velvetleaf (Abutilon theophrasti); settings: for Velvetleaf plant response rating (0 to 100 scale): 62 g ai/ha, postemergence, 0 is no effect, 100 is complete control; for Plant response rating, Velvetleaf: Postemergence
# Method in brief: as §1
# [12] = 31 g ai/ha, 0 to 100 scale (0 no effect, 100 complete control)
# [13] = 125 g ai/ha, scale 0 to 100 (0 no effect, 100 complete control)
# [14] = 250 g ai/ha, scale 0 to 100 (0 no effect, 100 complete control), 13 to 15 days
structure (smiles),measurement,setting,value
CCCCn1c(-c2cccc(Cl)c2)ncc(C(=O)C2=C(O)CCCC2=O)c1=O [Compound 146],"Ryegrass, Italian plant response rating (0 to 100 scale)",[1]; 13 to 15 days,5
same,"Plant response rating, Ryegrass, Italian",[1]; [12],5
same,"Plant response rating, Ryegrass, Italian",[1]; [13],10
same,"Plant response rating, Ryegrass, Italian",[1]; [14],15
same,Blackgrass plant response rating (0 to 100 scale),[2]; 13 to 15 days,30
same,"Plant response rating, Blackgrass",[2]; [12],5
same,"Plant response rating, Blackgrass",[2]; [13],35
same,"Plant response rating, Blackgrass",[2]; [14],50
same,Cocklebur plant response rating (0 to 100 scale),[3]; 13 to 15 days,25
same,"Plant response rating, Cocklebur",[3]; [12],10
same,Corn plant response rating (0 to 100 scale),corn (Zea mays); 13 to 15 days,5
same,"Plant response rating, Corn",corn (Zea mays); [12],0
same,"Plant response rating, Corn",corn (Zea mays); [13],20
same,"Plant response rating, Corn",corn (Zea mays); [14],35
same,"Foxtail, Giant plant response rating (0 to 100 scale)",[4]; 13 to 15 days,85
same,"Plant response rating, Foxtail, Giant",[4]; [12],75
same,"Plant response rating, Foxtail, Giant",[4]; [13],95
same,"Plant response rating, Foxtail, Giant",[4]; [14],98
same,Goosegrass plant response rating (0 to 100 scale),[5]; 13 to 15 days,90
same,"Plant response rating, Goosegrass",[5]; [12],75
same,"Plant response rating, Goosegrass",[5]; [13],95
same,"Plant response rating, Goosegrass",[5]; [14],95
same,"Foxtail, Green plant response rating (0 to 100 scale)",[6]; 13 to 15 days,55
same,"Plant response rating, Foxtail, Green",[6]; [12],50
same,"Plant response rating, Foxtail, Green",[6]; [13],80
same,"Plant response rating, Foxtail, Green",[6]; [14],90
same,Johnsongrass plant response rating (0 to 100 scale),[7]; 13 to 15 days,45
same,"Plant response rating, Johnsongrass",[7]; [12],45
same,"Plant response rating, Johnsongrass",[7]; [13],70
same,"Plant response rating, Johnsongrass",[7]; [14],95
same,Kochia plant response rating (0 to 100 scale),kochia (Kochia scoparia); 13 to 15 days,45
same,"Plant response rating, Kochia",kochia (Kochia scoparia); [12],40
same,"Plant response rating, Kochia",kochia (Kochia scoparia); [13],85
same,"Plant response rating, Kochia",kochia (Kochia scoparia); [14],90
same,"Crabgrass, Large plant response rating (0 to 100 scale)",[8]; 13 to 15 days,75
same,"Plant response rating, Crabgrass, Large",[8]; [12],65
same,"Plant response rating, Crabgrass, Large",[8]; [13],85
same,"Plant response rating, Crabgrass, Large",[8]; [14],98
same,Morningglory plant response rating (0 to 100 scale),[9]; 13 to 15 days,15
same,"Plant response rating, Morningglory",[9]; [12],0
same,"Plant response rating, Morningglory",[9]; [13],85
same,"Plant response rating, Morningglory",[9]; [14],95
same,Ragweed plant response rating (0 to 100 scale),[10]; 13 to 15 days,80
same,"Plant response rating, Ragweed",[10]; [12],65
same,"Plant response rating, Ragweed",[10]; [13],98
same,"Plant response rating, Ragweed",[10]; [14],98
same,Soybean plant response rating (0 to 100 scale),soybean (Glycine max); 13 to 15 days,85
same,"Plant response rating, Soybean",soybean (Glycine max); [12],70
same,"Plant response rating, Soybean",soybean (Glycine max); [13],98
same,"Plant response rating, Soybean",soybean (Glycine max); [14],100
same,Velvetleaf plant response rating (0 to 100 scale),[11]; 13 to 15 days,85
same,"Plant response rating, Velvetleaf",[11]; [12],80
same,"Plant response rating, Velvetleaf",[11]; [13],98
same,"Plant response rating, Velvetleaf",[11]; [14],100
COCCn1c(-c2cccc(Cl)c2)ncc(C(=O)C2=C(O)CCCC2=O)c1=O [Compound 147],"Ryegrass, Italian plant response rating (0 to 100 scale)",[1]; 13 to 15 days,5
same,"Plant response rating, Ryegrass, Italian",[1]; [12],5
same,"Plant response rating, Ryegrass, Italian",[1]; [13],30
same,"Plant response rating, Ryegrass, Italian",[1]; [14],40
same,Blackgrass plant response rating (0 to 100 scale),[2]; 13 to 15 days,40
same,"Plant response rating, Blackgrass",[2]; [12],10
same,"Plant response rating, Blackgrass",[2]; [13],45
same,"Plant response rating, Blackgrass",[2]; [14],55
same,Cocklebur plant response rating (0 to 100 scale),[3]; 13 to 15 days,75
same,"Plant response rating, Cocklebur",[3]; [12],50
same,"Plant response rating, Cocklebur",[3]; [13],90
same,"Plant response rating, Cocklebur",[3]; [14],100
same,Corn plant response rating (0 to 100 scale),corn (Zea mays); 13 to 15 days,15
same,"Plant response rating, Corn",corn (Zea mays); [12],0
same,"Plant response rating, Corn",corn (Zea mays); [13],25
same,"Plant response rating, Corn",corn (Zea mays); [14],40
same,"Foxtail, Giant plant response rating (0 to 100 scale)",[4]; 13 to 15 days,80
same,"Plant response rating, Foxtail, Giant",[4]; [12],65
same,"Plant response rating, Foxtail, Giant",[4]; [13],85
same,"Plant response rating, Foxtail, Giant",[4]; [14],90
same,Goosegrass plant response rating (0 to 100 scale),[5]; 13 to 15 days,70
same,"Plant response rating, Goosegrass",[5]; [12],35
same,"Plant response rating, Goosegrass",[5]; [13],80
same,"Plant response rating, Goosegrass",[5]; [14],95
same,"Foxtail, Green plant response rating (0 to 100 scale)",[6]; 13 to 15 days,65
same,"Plant response rating, Foxtail, Green",[6]; [12],40
same,"Plant response rating, Foxtail, Green",[6]; [13],80
same,"Plant response rating, Foxtail, Green",[6]; [14],90
same,Johnsongrass plant response rating (0 to 100 scale),[7]; 13 to 15 days,40
same,"Plant response rating, Johnsongrass",[7]; [12],15
same,"Plant response rating, Johnsongrass",[7]; [13],60
same,"Plant response rating, Johnsongrass",[7]; [14],60
same,Kochia plant response rating (0 to 100 scale),kochia (Kochia scoparia); 13 to 15 days,75
same,"Plant response rating, Kochia",kochia (Kochia scoparia); [12],40
same,"Plant response rating, Kochia",kochia (Kochia scoparia); [13],80
same,"Plant response rating, Kochia",kochia (Kochia scoparia); [14],100
same,"Crabgrass, Large plant response rating (0 to 100 scale)",[8]; 13 to 15 days,75
same,"Plant response rating, Crabgrass, Large",[8]; [12],60
same,"Plant response rating, Crabgrass, Large",[8]; [13],85
same,"Plant response rating, Crabgrass, Large",[8]; [14],90
same,Morningglory plant response rating (0 to 100 scale),[9]; 13 to 15 days,50
same,"Plant response rating, Morningglory",[9]; [12],50
same,"Plant response rating, Morningglory",[9]; [13],65
same,"Plant response rating, Morningglory",[9]; [14],100
same,Ragweed plant response rating (0 to 100 scale),[10]; 13 to 15 days,75
same,"Plant response rating, Ragweed",[10]; [12],20
same,"Plant response rating, Ragweed",[10]; [13],90
same,"Plant response rating, Ragweed",[10]; [14],98
same,Soybean plant response rating (0 to 100 scale),soybean (Glycine max); 13 to 15 days,60
same,"Plant response rating, Soybean",soybean (Glycine max); [12],15
same,"Plant response rating, Soybean",soybean (Glycine max); [13],65
same,"Plant response rating, Soybean",soybean (Glycine max); [14],85
same,Velvetleaf plant response rating (0 to 100 scale),[11]; 13 to 15 days,80
same,"Plant response rating, Velvetleaf",[11]; [12],60
same,"Plant response rating, Velvetleaf",[11]; [13],95
same,"Plant response rating, Velvetleaf",[11]; [14],100
